Reference: patent US3956487A, “Novel antifungal antibiotic substance, and agricultural and horticultural fungicidal composition containing said substance” (Nihon Tokushu Noyaku Seizo Kabushiki Kaisha, priority 1974, dated 1976)
Values after ≈ are worked out from the molar mass of the structure shown. Read-outs that look alike come from different tables or passages of the source.

Key:
[1] = tested on: various bacteria
[2] = tested on: Botorytis fabae
[3] = tested on: Alternaria japonica
[4] = tested on: Mice; details: for LD50: mice; for No abnormality (dose): mouse, in vivo
[5] = tested on: Gray mold fungus; experiment: Curative test on gray mold of bean leaves; details: 48 hours
[6] = tested on: Sclerotinia rot fungus; details: curative, 48 hours
[7] = tested on: Young carp
[8] = tested on: Brown rot (Sclerotinia cineria); experiment: Field test on brown rot of peach; assay type: in vivo; details: for Morbidity after 7 days since packaging: room temperature storage
Description: Test on Brown rot (Sclerotinia cineria) of peach (field test):
Both the morbidity upon harvest and morbidity of the fruit packed in a cardboard box for storage at room temperature were investigated.

[9] = tested on: Staphylococcus aureus FDA 209 p
[10] = tested on: Botorytis cinerea; details: 48 hours
[11] = tested on: Mycobacterium ATCC 607
[12] = tested on: Alternaria kikuchiana
[13] = tested on: Candida albicans
[14] = tested on: Escherichia coli NIHJ
[15] = tested on: Sarcina lutea PCI 1001
[16] = tested on: Ophiobolus miyabianus
[17] = tested on: Sclerotinia cinerea; details: 200 mcg/ml solution, 2 days at 27°C
[18] = tested on: Xanthomonas oryzae
[19] = tested on: Holmodendrum pedrosei
[20] = tested on: Aspergillus niger
[21] = tested on: Saccharomyces cerevisiae
[22] = tested on: crops; details: ordinary dosages
[23] = tested on: Sclerotinia cinerea; details: 72 hours
[24] = tested on: Vibrio comma 904; experiment: MIC, agar dilution method; assay type: cell-based
[25] = tested on: Bacillus subtilis PCI 219
[26] = tested on: Trichophyton rubrum
[27] = tested on: Sclerotinia sclerotiorum
[28] = not given; remark: listed apart in the source
[29] = tested on: Xanthomonas citri; experiment: MIC, agar dilution method; assay type: cell-based
[30] = tested on: Gray mold fungus; experiment: Preventive test on gray mold of bean leaves
[31] = tested on: Sclerotinia rot fungus; experiment: Preventive test on sclerotinia rot of bean leaves
[32] = 50 ppm, sprayed twice, 7-day interval

In the case of `CC(N)C(=O)NC1COC(O)C(N)C1O` (stereo not shown), the antibacterial action [1] was “only weak antibacterial action”, the “minimum inhibitory concentration (MIC)” value ([2]; 48 hours) was 6.25 µg/mL (≈ 28.5 µM) and the “minimum inhibitory concentration (MIC)” value ([2]; 72 hours) was 25 µg/mL (≈ 114 µM). The “minimum inhibitory concentration (MIC)” value ([3]; 48 hours) was 50 µg/mL (≈ 228 µM), the “minimum inhibitory concentration (MIC)” value ([3]; 72 hours) was 50 µg/mL (≈ 228 µM) and the LD50 ([4]; intravenous injection) was 160 mg/kg. For the same molecule, the LD50 ([4]; oral administration) was 750 mg/kg, the “No abnormality (dose)” value ([4]; iv) was 125 mg/kg and the “No abnormality (dose)” value ([4]; po) was 500 mg/kg. The “Diameter of the disease spot after spraying” value (shortened to “Diameter of the disease spot”) ([5]; 25 ppm) was 19.3 mm, the “Disease spot inhibiting rate” value ([5]; 25 ppm) was 59% and the “Diameter of the disease spot” value ([5]; 50 ppm) was 17.0 mm. For the same molecule, the “Disease spot inhibiting rate” value ([5]; 50 ppm) was 75%, the “Diameter of the disease spot” value ([5]; 100 ppm) was 16.3 mm and the “Disease spot inhibiting rate” value ([5]; 100 ppm) was 81%. For the same molecule, the “Diameter of the disease spot” value ([6]; 50 ppm) was 19.6 mm, the “Disease spot inhibiting rate” value ([6]; 50 ppm) was 62% and the “Diameter of the disease spot” value ([6]; 100 ppm) was 16.3 mm. For the same molecule, the “Disease spot inhibiting rate” value ([6]; 100 ppm) was 76%, the “no trouble (concentration)” value [7] was 250 ppm and the Morbidity upon harvest [8, 32] was 0. For the same molecule, the “Morbidity after 7 days since packaging” value [8, 32] was 0, the “minimum inhibitory concentration (MIC)” value ([9]; 24 hours) was greater than 100 µg/mL and the “minimum inhibitory concentration (MIC)” value ([9]; 48 hours) was greater than 100 µg/mL. For the same molecule, the “minimum inhibitory concentration (MIC)” value [10] was 6.25 µg/mL (≈ 28.5 µM), the “minimum inhibitory concentration (MIC)” value ([11]; 24 hours) was greater than 100 µg/mL and the “minimum inhibitory concentration (MIC)” value ([11]; 48 hours) was greater than 100 µg/mL. The “minimum inhibitory concentration (MIC)” value ([12]; 48 hours) was greater than 100 µg/mL, the “minimum inhibitory concentration (MIC)” value ([12]; 72 hours) was greater than 100 µg/mL and the “minimum inhibitory concentration (MIC)” value ([13]; 48 hours) was greater than 100 µg/mL. The “minimum inhibitory concentration (MIC)” value ([13]; 72 hours) was greater than 100 µg/mL, the “minimum inhibitory concentration (MIC)” value ([14]; 24 hours) was 100 µg/mL (≈ 456 µM) and the “minimum inhibitory concentration (MIC)” value ([14]; 48 hours) was greater than 100 µg/mL. For the same molecule, the “minimum inhibitory concentration (MIC)” value ([15]; 24 hours) was 3.12 µg/mL (≈ 14.2 µM), the “minimum inhibitory concentration (MIC)” value ([15]; 48 hours) was 3.12 µg/mL (≈ 14.2 µM) and the “minimum inhibitory concentration (MIC)” value ([16]; 48 hours) was 25 µg/mL (≈ 114 µM). For the same molecule, the “minimum inhibitory concentration (MIC)” value ([16]; 72 hours) was 25 µg/mL (≈ 114 µM), the inhibition zone diameter [17] was “about 35 mm” and the “minimum inhibitory concentration (MIC)” value ([18]; 48 hours) was 50 µg/mL (≈ 228 µM). For the same molecule, the “minimum inhibitory concentration (MIC)” value ([18]; 72 hours) was 100 µg/mL (≈ 456 µM), the “minimum inhibitory concentration (MIC)” value ([19]; 48 hours) was 25 µg/mL (≈ 114 µM) and the “minimum inhibitory concentration (MIC)” value ([19]; 72 hours) was 25 µg/mL (≈ 114 µM). The “Solubility in dimethyl sulfoxide” value (dimethyl sulfoxide) was “Soluble”, the Solubility in ethanol (ethanol) was “sparingly soluble” and the Solubility in methanol (methanol) was “Soluble”. For the same molecule, the “minimum inhibitory concentration (MIC)” value ([20]; 48 hours) was greater than 100 µg/mL, the “minimum inhibitory concentration (MIC)” value ([20]; 72 hours) was greater than 100 µg/mL and the “minimum inhibitory concentration (MIC)” value ([21]; 48 hours) was greater than 100 µg/mL. For the same molecule, the “minimum inhibitory concentration (MIC)” value ([21]; 72 hours) was greater than 100 µg/mL, the phytotoxicity to crops [22] was “does not give phytotoxicity to crops” and the “minimum inhibitory concentration (MIC)” value [23] was 25 µg/mL (≈ 114 µM). The “minimum inhibitory concentration (MIC)” value ([24]; 24 hours) was 12.5 µg/mL (≈ 57 µM), the “minimum inhibitory concentration (MIC)” value ([24]; 48 hours) was 100 µg/mL (≈ 456 µM) and the “minimum inhibitory concentration (MIC)” value ([25]; 24 hours) was greater than 100 µg/mL. For the same molecule, the “minimum inhibitory concentration (MIC)” value ([25]; 48 hours) was greater than 100 µg/mL, the “minimum inhibitory concentration (MIC)” value ([26]; 48 hours) was 100 µg/mL (≈ 456 µM) and the “minimum inhibitory concentration (MIC)” value ([26]; 72 hours) was greater than 100 µg/mL. The “minimum inhibitory concentration (MIC)” value ([27]; 48 hours) was 1.56 µg/mL (≈ 7.12 µM), the “minimum inhibitory concentration (MIC)” value ([27]; 72 hours) was 3.12 µg/mL (≈ 14.2 µM) and the stability on standing ([28]; allowed to stand for a long time) was “activity became lower and it coloured in yellow”. For the same molecule, the retention of activity ([28]; in an acidic solution) was “retains its activity”, the stability ([28]; in the form of aqueous solution) was “very stable” and the retention of activity ([28]; solution neutral to alkaline) was “activity is reduced”. The “minimum inhibitory concentration (MIC)” value ([29]; 48 hours) was greater than 100 µg/mL and the “minimum inhibitory concentration (MIC)” value ([29]; 72 hours) was greater than 100 µg/mL.
With `CC(N)C(=O)NC1COC(O)C(N)C1O.Cl` (stereo not shown) the “Diameter of disease spot” value ([30]; 25 ppm) was 23 mm, the “Disease spot inhibiting rate” value ([30]; 25 ppm) was 23% and the “Diameter of disease spot” value ([30]; 50 ppm) was 10 mm. For the same molecule, the “Disease spot inhibiting rate” value ([30]; 50 ppm) was 67%, the “Diameter of disease spot” value ([31]; 25 ppm) was 10 mm and the “Disease spot inhibiting rate” value ([31]; 25 ppm) was 71%. The “Diameter of disease spot” value ([31]; 50 ppm) was 0 mm and the “Disease spot inhibiting rate” value ([31]; 50 ppm) was 100%.
For `CCCCNC(=O)n1c(NC(=O)OC)nc2ccccc21` [BENLATE, methyl-1-(butylcarbamoyl)-2-benzimidazole carbamate], the Morbidity upon harvest ([8]; 50% product × 1000) was 0.3 and the “Morbidity after 7 days since packaging” value ([8]; 50% product × 1000) was 46.1.
In the case of `CC1(C)OC(=O)N(c2cc(Cl)cc(Cl)c2)C1=O` [Sclex, 3-(3,5-dichlorophenyl)-5,5-dimethyloxazolidinedione-2,4], the “Diameter of the disease spot” value ([5]; 20% product × 1000 (200 ppm)) was 17.7 mm, the “Disease spot inhibiting rate” value ([5]; 20% product × 1000 (200 ppm)) was 61% and the Morbidity upon harvest ([8]; 20% product × 1500) was 0.03. For the same molecule, the “Morbidity after 7 days since packaging” value ([8]; 20% product × 1500) was 7.7.
